Laboratory results taken from patent publication US11028137B2, “Mutant islet amyloid polypeptides with improved solubility and methods for using the same” (priority 2017, dated 2021).
Where a SMILES comes first, the peptide text is derived from it.

Key:
[1] = pH 7.4
Method: Dry peptides were dissolved into 10 mM PBS buffer at pH 7.4 at different initial concentrations, and were incubated for 7 days at 25° C. without stirring. Each sample was then centrifuged using a Beckman Coulter Microfuge 22R Centrifuge at 24° C. for 20 min. The relative centrifugal force used was 1.75×10^4 g. Solubility of each sample was approximated by measuring the absorbance of the corresponding supernatant at 280 nm measured using a Beckman Coulter DU 730 UV/Vis Spectrophotometer.
Each peptide tested was incubated in 10 mM PBS buffer at pH 7.4 for 7 days at three different concentrations (100 μM, 500 μM and 1 mM) and the solution was then centrifuged. The apparent solubility was represented by the absorbance of the supernatant of each sample measured at 280 nm. The extinction coefficients of all polypeptides are very similar at 280 nm since they all contain the same aromatic residues and each contains a disulfide bond. […] A peptide which is soluble at 1 mM and above will show a linear dependence of absorbance on initial concentration. A peptide which is less soluble will deviate from linearity. The peptides were centrifuged after 7 days and their apparent solubility measured by measuring the absorbance at 280 nm of the supernatant of each solution. The apparent concentration refers to the concentration which would be obtained if all of the peptide dissolved. The absorbance of the supernatant is directly proportion to the amount of peptide in solution.

[2] = target: T1, human calcitonin receptor (hCT(a)) (Homo sapiens, UniProt P30988); assay: cAMP production (LANCE cAMP assay) in transfected Cos-7 cells; format: cell-based; conditions: Cos-7 cells expressing hCT(a)
T1 construct: expressed in transfected cells; host or cells: Cos-7 cells, transient transfection with PEI, pcDNA3.1 vectors
T1 sequence (P30988 25-474): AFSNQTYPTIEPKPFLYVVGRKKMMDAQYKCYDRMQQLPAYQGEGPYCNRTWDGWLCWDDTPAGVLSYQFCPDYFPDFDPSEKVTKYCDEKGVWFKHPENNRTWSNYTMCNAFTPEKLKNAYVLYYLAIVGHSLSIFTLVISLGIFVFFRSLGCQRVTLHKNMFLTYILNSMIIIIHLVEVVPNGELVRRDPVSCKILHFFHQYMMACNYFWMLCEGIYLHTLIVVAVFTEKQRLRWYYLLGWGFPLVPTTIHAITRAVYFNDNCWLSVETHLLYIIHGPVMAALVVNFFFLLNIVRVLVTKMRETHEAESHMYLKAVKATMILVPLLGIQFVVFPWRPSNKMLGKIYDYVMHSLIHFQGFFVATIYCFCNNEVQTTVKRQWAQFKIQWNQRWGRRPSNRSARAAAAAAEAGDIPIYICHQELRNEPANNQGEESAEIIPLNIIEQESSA
Method: (§1) Cell Culture and Transfection. Cos-7 cells were cultured and transfected for receptor activity assays as previously described in Bailey, R. J., and Hay, D. L. Peptides (2006) 27, pp. 1367-1375, the entire contents of which is incorporated herein by reference. Specifically, cells were cultured in Dulbucco's modified eagle medium (DMEM) with 8% heat-inactivated fetal bovine serum (FBS) and kept in a 37° C. humidified 95% air/5% CO2 incubator. Cells were plated at a density of 18,000-20,000 cells/well (depending on cell passage) in 96-well culture plate and returned to the incubator for approximately 18-24 hours. Transient transfections were carried out using polyethyleneimine (PEI) as described previously and maintained at 37° C. in a humidified 95% air/5% CO2 incubator for 36-48 hours. All DNA constructs used in this these were in pcDNA3.1 vectors.
(§2) cAMP Assay: Measurement of intracellular cAMP was achieved using a time-resolved fluorescent resonance energy transfer assay (LANCE cAMP assay, PerkinElmer), similar to the previously described Alphascreen assay as described in Gingell, J. J., et al. Peptides (2010) 31, pp. 1400-1404, with the following changes. Following stimulation with peptide agonist, cAMP assay media from the wells was thoroughly aspirated and 50 μl of ice-cold absolute ethanol added to each well. Plates were then placed in a −30° C. freezer for 10 minutes or overnight prior to assay, then removed and allowed to air dry in a fume hood for 1-2 hours. After ethanol evaporated from the plates, 50 μl of LANCE detection buffer (lysis buffer, 0.35% Triton X-100, 50 mM HEPES and 10 mM calcium chloride in ddH2O, pH 7.4) was added per well and left on a plate shaker for 10-15 minutes at room temperature. Meanwhile, a cAMP standard curve was generated using LANCE detection buffer and a serially diluted cAMP standard (50 μM) ranging from 1 μM to 10 pM. The serially diluted cAMP standards (5 μl) and cell lysates (5 μl) were transferred into 384-well opti-plates and sealed with a Sealplate®-A-384-well microplate adhesive film and briefly centrifuged (10 seconds, 500 rpm, 23° C.). A 1:200 dilution of LANCE assay Alexa Fluor® 647 anti-cAMP antibody was prepared in detection buffer and 5 μl added to each well. Plates were sealed and briefly centrifuged again (10 seconds, 500 rpm, 23° C.) and left to incubate, sealed for 30 minutes at room temperature. During this incubation, detection mix was made up consisting of detection buffer, Europium-W8044 labelled streptavidin (1:4500) and biotin-cAMP (1:1500). After 30 minutes incubation, 10 μl of detection mix was added to each well, plates were centrifuged (30 seconds, 500 rpm, 23° C.), sealed and left to incubate for 1 hour at room temperature. Plates were read after an overnight incubation on an Envision plate reader. A standard curve was included in each experiment to ensure accurate quantification of cAMP.
(§3) Data Analysis for Receptor Assays: Data were derived from independent experiments for statistical analysis and all experiments were performed and replicated. Quantification of cAMP was obtained from a standard curve included in each experiment and plotted using the software GraphPad Prism 6.0 (GraphPad Software Inc, San Diego, Calif., USA) with a non-linear regression 3-parameter logistic equation with a Hill Slope of 1 to determine the pEC50. The pEC50 values from the fits were combined from different experimental days and statistically tested for difference from the WT peptide using the Student's t-test with statistical significance defined as * p<0.05, ** p<0.01, *** p<0.001. Due to variability in amount of cAMP produced between experimental days, data were normalized to the control peptide for each experiment to obtain Emax values. For each analogue, data were normalized to the maximum (Emax) and minimum (Emin) responses of h-amylin. […]

[3] = target: T2, human amylin receptor (hAMY1(a)) (Homo sapiens, UniProt O60894+P30988); assay: as above; format: cell-based; conditions: Cos-7 cells expressing hAMY1(a)
T2 construct: expressed in transfected cells; host or cells: Cos-7 cells, transient transfection with PEI, pcDNA3.1 vectors
T2 sequence (O60894 27-148 partner, one chain of several): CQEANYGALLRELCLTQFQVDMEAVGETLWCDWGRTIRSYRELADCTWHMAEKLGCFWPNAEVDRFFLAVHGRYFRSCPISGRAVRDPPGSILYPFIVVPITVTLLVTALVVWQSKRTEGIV
Method: as §1, §2, §3

[4] = Thioflavin-T fluorescence assay of amyloid formation kinetics; format: physicochemical; conditions: 16 μM peptide, 10 mM PBS pH 7.4, 25° C., no stirring; for amyloid formation monitored by thioflavin-T fluorescence: 1 week and 6 week incubations
Method: Sample Preparation. Each peptide was dissolved into 100% hexafluoroisoproponal (HFIP) to make a 0.5 mM stock solution. Stock solutions were filtered using […] Acrodisc syringe filter with a GHP membrane and the required amount of peptide was lyophilized overnight to remove HFIP. Dry peptide was dissolved into the appropriate buffer for the fluorescence assays. Fluorescence Assays. Thioflavin-T binding assays, conducted without HFIP or stirring at 25° C., were utilized to monitor amyloid formation kinetics. Fluorescence measurements were performed using a Spectramax Gemini EM plate reader. Corning 96-well non-binding surface black plates with lids were used and were sealed with polyethylene sealing tape. Samples were prepared by dissolving dry peptide into 10 mM PBS buffer (pH 7.4) and 32 μM thioflavin-T solution immediately before the measurement. Thioflavin-T fluorescence was measured with 450 nm excitation and emission at 485 nm was monitored. The final concentrations were 16 μM peptides. After creating the mutant-hIAPP polypeptides of the present disclosure, applicants tested the propensity of the different analogs to form amyloid at pH 7.4 using thioflavin-T fluorescence assays (FIGS. 2A-D) and TEM (FIGS. 3A-E). […] Amyloid formation follows a sigmoidal time course consisting of a lag phase in which few, if any, fibrils are formed, followed by a growth phase and a saturation phase in which amyloid fibrils are in equilibrium with soluble peptide.

[5] = Transmission electron microscopy (TEM) of amyloid aggregates; format: physicochemical; conditions: for amyloid aggregates in TEM images: after 7 days of incubation, end of kinetic experiment
Method: Transmission Electron Microscopy (TEM). TEM images were recorded using an FEI Bio TwinG^2 Transmission Electron Microscope at the central microscopy center at Stony Brook University. 15 μL aliquots of the samples used for fluorescence assays were removed at the end of each kinetic experiment, blotted on a carbon formvar-coated 300-mesh copper grid for 1 min and then negatively stained with saturated uranyl acetate for 1 min. Images were taken at a 68,000× magnification and 100 nm under focus. Mutant-hIAPP polypeptides of the present disclosure were further analyzed using TEM. […] In contrast, no amyloid fibrils were formed after a 1 week (FIGS. 3B-E, left) or 6 week (FIGS. 3B-E, right) culture with the any of the mutant-hIAPP analogs tested.

[6] = pH 7
Method: 100 μL each solution was obtained immediately following dissolution with Novolin-N® and was centrifuged using a Beckman Coulter Microfuge (22R Centrifuge) at 24° C. for 20 minutes. The relative centrifugal force used was 1.75×104 g. Aliquots of each sample were immediately frozen and lyophilized. The remaining portion of each sample was not centrifuged and were incubated at 25° C. without stirring. Samples were collected again following the same procedures after 1 day, 7 days and 30 days. Dry samples were redissolved in 4:1 HPLC buffer mix (4A:1B, below) and immediately injected for liquid chromatography-mass spectroscopy (LC-MS) measurements. The HPLC buffers were (A) H2O (0.1% acetic acid and 0.02% TFA) and (B) CH3CN (0.1% acetic acid and 0.02% TFA). Solubility of each co-formulated sample was determined by measuring the absorbance from the liquid chromatogram traces at 215±8 nm and at 277±8 nm at each time point tested. points (0 hours, 24 hours, 7 days and 30 days post-formulation).

EC50 ([2]; cAMP production, mean ± spread, read-out: Human calcitonin receptor binding data pEC50 (converted)) | EC50 ([3]; cAMP production, mean ± spread, read-out: Human Amylin1(a) receptor binding data pEC50 (converted)) | amyloid aggregates in TEM images [5] | amyloid fibrils in TEM images ([5]; after 1 week and 6 week time periods) | SMILES | solubility at neutral pH (absorbance of supernatant at 280 nm) [1] | concentration-response of cAMP production compared with wild-type hIAPP [2] | concentration-response of cAMP production compared with wild-type hIAPP [3] | amyloid formation monitored by thioflavin-T fluorescence [4] | solubility co-formulated with Novolin-N (absorbance at 215 nm and 277 nm, LC-MS) [6] | time at which amyloid formation reaches the saturation phase ([4]; 32 μM thioflavin-T)
5.01 nM | 3.39 nM | no aggregates are observed | – | CC(C)C[C@H](NC(=O)[C@H](CCCNC(=N)N)NC(=O)[C@H](CCC(N)=O)NC(=O)[C@@H](NC(=O)[C@H](C)NC(=O)[C@@H]1CSSC[C@H](NC(=O)[C@@H](N)CCCCN)C(=O)N[C@@H](CC(N)=O)C(=O)N[C@@H]([C@@H](C)O)C(=O)N[C@@H](C)C(=O)N[C@@H]([C@@H](C)O)C(=O)N1)[C@@H](C)O)C(=O)N[C@@H](C)C(=O)N[C@@H](CC(N)=O)C(=O)N[C@@H](Cc1ccccc1)C(=O)N[C@@H](CC(C)C)C(=O)N[C@H](C(=O)N[C@@H](Cc1c[nH]cn1)C(=O)N[C@@H](CO)C(=O)N[C@@H](CO)C(=O)N[C@@H](CC(N)=O)C(=O)N[C@@H](CCCCN)C(=O)N[C@@H](Cc1ccccc1)C(=O)N1CCC[C@H]1C(=O)N[C@@H](C)C(=O)N1CCC[C@H]1C(=O)N[C@@H](CC(C)C)C(=O)N[C@@H](CO)C(=O)N[C@@H](CO)C(=O)N[C@H](C(=O)N[C@@H](CCCCN)C(=O)N[C@H](C(=O)NCC(=O)N[C@@H](CO)C(=O)N[C@@H](CC(N)=O)C(=O)N[C@H](C(=O)N[C@@H](Cc1ccc(O)cc1)C(N)=O)[C@@H](C)O)C(C)C)[C@@H](C)O)C(C)C [SEQ ID NO: 10] (HELM PEPTIDE1{K.C.N.T.A.T.C.A.T.Q.R.L.A.N.F.L.V.H.S.S.N.K.F.P.A.P.L.S.S.T.K.V.G.S.N.T.Y.[am]}$PEPTIDE1,PEPTIDE1,2:R3-7:R3$$$V2.0) | more substantially soluble than wild-type hIAPP | do not significantly alter amylin or calcitonin receptor activity | do not significantly alter amylin or calcitonin receptor activity | none of the mutant hIAPP polypeptides forms amyloid | significantly higher absorbance when compared to both wild-type hIAPP and paramlintide | –
– | – | extensive amounts of amyloid fibers | typical amyloid fibril morphology | CC[C@H](C)[C@H](NC(=O)[C@H](C)NC(=O)CNC(=O)[C@H](Cc1ccccc1)NC(=O)[C@H](CC(N)=O)NC(=O)[C@H](CC(N)=O)NC(=O)[C@H](CO)NC(=O)[C@H](CO)NC(=O)[C@H](Cc1c[nH]cn1)NC(=O)[C@@H](NC(=O)[C@H](CC(C)C)NC(=O)[C@H](Cc1ccccc1)NC(=O)[C@H](CC(N)=O)NC(=O)[C@H](C)NC(=O)[C@H](CC(C)C)NC(=O)[C@H](CCCNC(=N)N)NC(=O)[C@H](CCC(N)=O)NC(=O)[C@@H](NC(=O)[C@H](C)NC(=O)[C@@H]1CSSC[C@H](NC(=O)[C@@H](N)CCCCN)C(=O)N[C@@H](CC(N)=O)C(=O)N[C@@H]([C@@H](C)O)C(=O)N[C@@H](C)C(=O)N[C@@H]([C@@H](C)O)C(=O)N1)[C@@H](C)O)C(C)C)C(=O)N[C@@H](CC(C)C)C(=O)N[C@@H](CO)C(=O)N[C@@H](CO)C(=O)N[C@H](C(=O)N[C@@H](CC(N)=O)C(=O)N[C@H](C(=O)NCC(=O)N[C@@H](CO)C(=O)N[C@@H](CC(N)=O)C(=O)N[C@H](C(=O)N[C@@H](Cc1ccc(O)cc1)C(N)=O)[C@@H](C)O)C(C)C)[C@@H](C)O [Wild-type hIAPP, reference compound] | – | – | – | forms significant amounts of amyloid | – | ≤ 30 h
